The results in this text go back to patent US20140343017A1, “PYRROLE COMPOUND” (Kabushiki Kaisha Yakult Honsha, priority 2012, published 2014).

The structures appear in SMILES notation. Structures can show the parent of a compound that is named as a salt. Where two headings read alike, the source gives them in different places.

Holding throughout (experiment): Inhibitory effect on growth of human cancer cells (in vitro), WST-8
Format in all cases: cell-based
(In general: Formazan colour is commonly taken as a measure of viable cells.)

Test [1] relates to human colorectal cancer HCT116 cells. The note with it: 96 hours culture. The method, then: (§1) Each pyrrole compound of the present invention was studied for its effects on the growth of human non-small cell lung cancer A549 cells and human colorectal cancer HT-29 cells and HCT116 cells. The cells of each line were suspended in an RPMI1640 medium supplemented with 10% fetal bovine serum and inoculated at a cell density of 1000 cells/50 μL/well to a 96-well plate. After overnight culture, each compound diluted with a medium was added thereto at a concentration of 50 μL/well, and the cells were further cultured for 96 hours. After the completion of culture, WST-8 (Seikagaku Corp.) was added thereto at a concentration of 10 μL/well, and the cells were cultured at 37° C. for approximately 1 hour under 5% CO2 conditions, followed by measurement of absorbance at 450 nm.

Test [2] concerns human colorectal cancer HT-29 cells. The note with it: 96 hours culture, read-out: IC50 (nM) HT29. The method, then:
as §1

The subject of test [3] is human non-small cell lung cancer A549 cells. As to conditions: 96 hours culture. The method, then: as §1

What is called IC50 is the concentration that gives 50% inhibition. For `Cc1c(-c2nnc(C3CC3)o2)[nH]c(C(F)F)c1C(=O)c1cccc(Br)c1` [Compound 265, (3-bromophenyl)(5-(5-cyclopropyl-1,3,4-oxadiazol-2-yl)-2-(difluoromethyl)-4-methyl-1H-pyrrol-3-yl)methanone], the half-maximal inhibitory concentration (IC50) in test [1] (Homo sapiens, HCT-116, 96 h) turned out to be 158 nM; in test [2] (Homo sapiens, HT-29, 96 h), 37.1 nM; in test [3] (Homo sapiens, A549, 96 h), 46 nM.

As for `CC(=O)OCc1nnc(-c2[nH]c(C)c(C(=O)c3cccc(Br)c3)c2C)o1` [Compound 210, (5-(4-(3-bromobenzoyl)-3,5-dimethyl-1H-pyrrol-2-yl)-1,3,4-oxadiazol-2-yl)methyl acetate], the IC50 amounted to 42.9 nM in test [1] (Homo sapiens, HCT-116, 96 h); 39.3 nM in test [2] (Homo sapiens, HT-29, 96 h); 205 nM in test [3] (Homo sapiens, A549, 96 h).

For `CNC(=O)c1[nH]c(-c2nnn(CCO)n2)c(C)c1C(=O)c1ccc(OC)c(Br)c1` [Compound 149, 3-(3-bromo-4-methoxybenzoyl)-5-(2-(2-hydroxyethyl)-2H-tetrazol-5-yl)-N,4-dimethyl-1H-pyrrole-2-carboxamide], the IC50 in test [1] (Homo sapiens, HCT-116, 96 h) stood at 219 nM; in test [2] (Homo sapiens, HT-29, 96 h), 232 nM; in test [3] (Homo sapiens, A549, 96 h), 306 nM.

As for `CC(=O)OCCc1nnc(-c2[nH]c(C)c(C(=O)c3cccc(Br)c3)c2C)o1` [Compound 204, 2-(5-(4-(3-bromobenzoyl)-3,5-dimethyl-1H-pyrrol-2-yl)-1,3,4-oxadiazol-2-yl)ethyl acetate], the IC50 came out at 8.9 nM in test [1] (Homo sapiens, HCT-116, 96 h); 5.9 nM in test [2] (Homo sapiens, HT-29, 96 h); 31.1 nM in test [3] (Homo sapiens, A549, 96 h).

Turning to `Cc1[nH]c(-c2nnn(CCOC(=O)CN)n2)c(C)c1C(=O)c1cccc(Br)c1` [Compound 297, 2-(5-(4-(3-bromobenzoyl)-3,5-dimethyl-1H-pyrrol-2-yl)-2H-tetrazol-2-yl)ethyl 2-aminoacetate hydrochloride], the IC50 in test [1] (hydrochloride) was determined as 7.3 nM; in test [2] (hydrochloride), 8.2 nM; in test [3] (hydrochloride) it was 12.2 nM.

For the compound `COc1ccc(C(=O)c2c(/C=N/O)[nH]c(-c3nnn(CCOC(C)=O)n3)c2C)cc1Br` [Compound 169, (E)-2-(5-(4-(3-bromo-4-methoxybenzoyl)-5-((hydroxyimino)methyl)-3-methyl-1H-pyrrol-2-yl)-2H-tetrazol-2-yl)ethyl acetate], the IC50 in test [1] (Homo sapiens, HCT-116, 96 h) amounted to 162 nM; in test [2] (Homo sapiens, HT-29, 96 h), 167 nM; in test [3] (Homo sapiens, A549, 96 h) it was 225 nM.

With `CCc1nnc(-c2c(C)c(C(=O)c3cccc(Br)c3)c(C)n2C(C)=O)o1` [Compound 224, 1-(3-(3-bromobenzoyl)-5-(5-ethyl-1,3,4-oxadiazol-2-yl)-2,4-dimethyl-1H-pyrrol-1-yl)ethanone], the IC50 in test [1] (Homo sapiens, HCT-116, 96 h) came out at 1.7 nM; in test [2] (Homo sapiens, HT-29, 96 h), 1.3 nM; in test [3] (Homo sapiens, A549, 96 h), 1.8 nM.

For `Cc1c(-c2nnc(C3CC3)o2)[nH]c(C2SCCCS2)c1C(=O)c1cccc(Br)c1` [Compound 200, (3-bromophenyl) (5-(5-cyclopropyl-1,3,4-oxadiazol-2-yl)-2-(1,3-dithian-2-yl)-4-methyl-1H-pyrrol-3-yl)methanone], the IC50 in test [1] (Homo sapiens, HCT-116, 96 h) turned out to be 647 nM; in test [2] (Homo sapiens, HT-29, 96 h), 209 nM; in test [3] (Homo sapiens, A549, 96 h), 389 nM.

Turning to `COc1ccc(C(=O)c2c(CO)[nH]c(-c3nnn(CCO)n3)c2C)cc1Br` [Compound 129, (3-bromo-4-methoxyphenyl)(5-(2-(2-hydroxyethyl)-2H-tetrazol-5-yl)-2-(hydroxymethyl)-4-methyl-1H-pyrrol-3-yl)methanone], the IC50 in test [1] (Homo sapiens, HCT-116, 96 h) came out at 41.2 nM; in test [2] (Homo sapiens, HT-29, 96 h), 34.2 nM; in test [3] (Homo sapiens, A549, 96 h), 46.9 nM.

As for `COc1ccc(C(=O)c2c(C(C)O)[nH]c(-c3nnn(CCO)n3)c2C)cc1Br` (stereo not drawn) [Compound 131, (3-bromo-4-methoxyphenyl)(2-(1-hydroxyethyl)-5-(2-(2-hydroxyethyl)-2H-tetrazol-5-yl)-4-methyl-1H-pyrrol-3-yl)methanone], the 50% inhibitory concentration (IC50) in test [1] (Homo sapiens, HCT-116, 96 h) amounted to 90.9 nM; in test [2] (Homo sapiens, HT-29, 96 h) it was 34.8 nM; in test [3] (Homo sapiens, A549, 96 h), 45.1 nM.

Turning to `Cc1[nH]c(-c2nnc(C3(O)CC3)o2)c(C)c1C(=O)c1cccc(Br)c1` [Compound 188, (3-bromophenyl)(5-(5-(1-hydroxycyclopropyl)-1,3,4-oxadiazol-2-yl)-2,4-dimethyl-1H-pyrrol-3-yl)methanone], the IC50 in test [1] (Homo sapiens, HCT-116, 96 h) is 40.4 nM; in test [2] (Homo sapiens, HT-29, 96 h), 35.1 nM; in test [3] (Homo sapiens, A549, 96 h), 37.8 nM.

With `COc1ccc(C(=O)c2c(C(F)F)[nH]c(-c3nnn(CCO)n3)c2C)cc1Br` [Compound 127, (3-bromo-4-methoxyphenyl)(2-(difluoromethyl)-5-(2-(2-hydroxyethyl)-2H-tetrazol-5-yl)-4-methyl-1H-pyrrol-3-yl)methanone], the IC50 is 40.4 nM in test [1] (Homo sapiens, HCT-116, 96 h); 36.9 nM in test [2] (Homo sapiens, HT-29, 96 h); 44.7 nM in test [3] (Homo sapiens, A549, 96 h).

With `COc1ccc(C(=O)c2c(C#N)[nH]c(-c3nnn(CCO)n3)c2C)cc1Br` [Compound 139, 3-(3-bromo-4-methoxybenzoyl)-5-(2-(2-hydroxyethyl)-2H-tetrazol-5-yl)-4-methyl-1H-pyrrole-2-carbonitrile], the IC50 amounted to 171 nM in test [1] (Homo sapiens, HCT-116, 96 h); 174 nM in test [2] (Homo sapiens, HT-29, 96 h); 245 nM in test [3] (Homo sapiens, A549, 96 h).

For the compound `CCc1nnc(-c2c(C)c(C(=O)c3cccc(Br)c3)c(C)n2C(=O)c2ccccc2)o1` [Compound 237, (1-benzoyl-5-(5-ethyl-1,3,4-oxadiazol-2-yl)-2,4-dimethyl-1H-pyrrol-3-yl) (3-bromophenyl)methanone], the IC50 amounted to 0.6 nM in test [1] (Homo sapiens, HCT-116, 96 h); 0.3 nM in test [2] (Homo sapiens, HT-29, 96 h); 1.9 nM in test [3] (Homo sapiens, A549, 96 h).

For `CCc1cnc(-c2[nH]c(C)c(C(=O)c3cccc(Br)c3)c2C)o1` [Compound 272, (3-bromophenyl) (5-(5-ethyloxazol-2-yl)-2,4-dimethyl-1H-pyrrol-3-yl)methanone], the IC50 in test [1] (Homo sapiens, HCT-116, 96 h) came out at 48.4 nM; in test [2] (Homo sapiens, HT-29, 96 h) it was 42 nM; in test [3] (Homo sapiens, A549, 96 h), 66.6 nM.

As to `CCc1nnc(-c2[nH]c(C)c(C(=O)c3ccc(OCCN)c(Br)c3)c2C)o1` [Compound 251, (4-(2-aminoethoxy)-3-bromophenyl)(5-(5-ethyl-1,3,4-oxadiazol-2-yl)-2,4-dimethyl-1H-pyrrol-3-yl)methanone], the IC50 in test [1] (Homo sapiens, HCT-116, 96 h) was determined as 55.3 nM; in test [2] (Homo sapiens, HT-29, 96 h), 102 nM; in test [3] (Homo sapiens, A549, 96 h), 191 nM.

As for `CCn1nnc(-c2[nH]c(C)c(C(=O)c3cccc(OCCN)c3)c2C)n1` [Compound 296, (3-(2-aminoethoxy)phenyl)(5-(2-ethyl-2H-tetrazol-5-yl)-2,4-dimethyl-1H-pyrrol-3-yl)methanone hydrochloride], the IC50 turned out to be 208 nM in test [1] (hydrochloride), 198 nM in test [2] (hydrochloride) and 637 nM in test [3] (hydrochloride).

Regarding `Cc1[nH]c(-c2nnc(C3CC3)o2)c(C)c1C(=O)c1ccc(O)c(Br)c1` [Compound 254, (3-bromo-4-hydroxyphenyl)(5-(5-cyclopropyl-1,3,4-oxadiazol-2-yl)-2,4-dimethyl-1H-pyrrol-3-yl)methanone], the IC50 in test [1] (Homo sapiens, HCT-116, 96 h) came out at 44.5 nM; in test [2] (Homo sapiens, HT-29, 96 h) it was 33.2 nM; in test [3] (Homo sapiens, A549, 96 h), 55.1 nM.

Turning to `CC(=O)OCCn1nnc(-c2[nH]c(C)c(C(=O)c3cccc(Br)c3)c2C)n1` [Compound 104, 2-(5-(4-(3-bromobenzoyl)-3,5-dimethyl-1H-pyrrol-2-yl)-2H-tetrazol-2-yl)ethyl acetate], the IC50 came out at 8.5 nM in test [1] (Homo sapiens, HCT-116, 96 h); 8.5 nM in test [2] (Homo sapiens, HT-29, 96 h); 11 nM in test [3] (Homo sapiens, A549, 96 h).

As for `CCc1nnc(-c2c(C)c(C(=O)c3cccc(Br)c3)c(C)n2S(=O)(=O)C2CC2)o1` [Compound 227, (3-bromophenyl) (1-(cyclopropylsulfonyl)-5-(5-ethyl-1,3,4-oxadiazol-2-yl)-2,4-dimethyl-1H-pyrrol-3-yl)methanone], the IC50 in test [1] (Homo sapiens, HCT-116, 96 h) stood at 447 nM; in test [2] (Homo sapiens, HT-29, 96 h), 290 nM; in test [3] (Homo sapiens, A549, 96 h), 555 nM.

With `C=Cc1[nH]c(-c2nnc(C3CC3)o2)c(C)c1C(=O)c1cccc(Br)c1` [Compound 260, (3-bromophenyl) (5-(5-cyclopropyl-1,3,4-oxadiazol-2-yl)-4-methyl-2-vinyl-1H-pyrrol-3-yl)methanone], the IC50 was 0.3 nM in test [1] (Homo sapiens, HCT-116, 96 h); 0.3 nM in test [2] (Homo sapiens, HT-29, 96 h); 0.4 nM in test [3] (Homo sapiens, A549, 96 h).

Regarding `Cc1[nH]c(-c2nnc(C3CC3)o2)c(C)c1C(=O)c1cccc(Br)c1` [Compound 177, (3-bromophenyl)(5-(5-cyclopropyl-1,3,4-oxadiazol-2-yl)-2,4-dimethyl-1H-pyrrol-3-yl)methanone], the IC50 worked out at 0.4 nM in test [1] (Homo sapiens, HCT-116, 96 h); 0.4 nM in test [2] (Homo sapiens, HT-29, 96 h); 1.5 nM in test [3] (Homo sapiens, A549, 96 h).

On to `COc1ccc(C(=O)c2c(CCl)[nH]c(-c3nnn(CCOC(C)=O)n3)c2C)cc1Br` [Compound 172, 2-(5-(4-(3-bromo-4-methoxybenzoyl)-5-(chloromethyl)-3-methyl-1H-pyrrol-2-yl)-2H-tetrazol-2-yl)ethyl acetate], for which the half-inhibitory concentration (IC50) in test [1] (Homo sapiens, HCT-116, 96 h) is 36.9 nM; in test [2] (Homo sapiens, HT-29, 96 h), 34.5 nM; in test [3] (Homo sapiens, A549, 96 h), 47 nM.

As to `Cc1nnc(-c2[nH]c(C)c(C(=O)c3cccc(Br)c3)c2C)o1` [Compound 185, (3-bromophenyl) (2,4-dimethyl-5-(5-methyl-1,3,4-oxadiazol-2-yl)-1H-pyrrol-3-yl)methanone], the IC50 in test [1] (Homo sapiens, HCT-116, 96 h) was 2.9 nM; in test [2] (Homo sapiens, HT-29, 96 h), 1.8 nM; in test [3] (Homo sapiens, A549, 96 h), 9.1 nM.

On to `CNC(=O)c1[nH]c(-c2nnn(CCN)n2)c(C)c1C(=O)c1cccc(Br)c1` [Compound 282, 5-(2-(2-aminoethyl)-2H-tetrazol-5-yl)-3-(3-bromobenzoyl)-N,4-dimethyl-1H-pyrrole-2-carboxamide], for which the IC50 came out at 754 nM in test [1] (Homo sapiens, HCT-116, 96 h); 315 nM in test [2] (Homo sapiens, HT-29, 96 h); 525 nM in test [3] (Homo sapiens, A549, 96 h).
